Experimental findings from ChEMBL document CHEMBL1667812, “Compounds from Kadsura angustifolia with anti-HIV activity” (Bioorg Med Chem Lett, 2011) are described below.

In brackets after ≈: the same amount, converted by molar mass.

Data set [1] is described as follows: Cytotoxicity against human […] cells. The data set is classed as cell-based.
Data set [2] is described as follows: Therapeutic index, ratio of CC50 for human […] cells to EC50 for HIV1-3B. The data set is classed as cell-based. To be noted: read-out: Ratio CC50/EC50.
The subject of data set [3] is Human immunodeficiency virus 1. Briefly: Antiviral activity against HIV1-3B infected in human […] cells assessed as inhibition of virus-induced cytopathic effect. The data set is classed as functional, organism-based. The note with it: Human immunodeficiency virus 1, 3B. For orientation: Damage to the host cells serves as the signal in cytopathic effect assays.

Regarding `C/C=C(/C)C(=O)O[C@H]1c2cc3c(c(OC)c2-c2c(cc4c(c2OC)OCO4)C[C@H](C)[C@]1(C)O)OCO3` [INTERIOTHERIN B], the CC50 (commonly the concentration giving 50% cytotoxicity) in data set [1] was greater than 200 µg/mL. In addition, the selectivity ratio in data set [2] was greater than 10.5. For the same molecule, the EC50 (commonly the concentration at which the effect is half-maximal) in data set [3] came out at 19 µg/mL (≈ 38.1 µM).

`C/C=C(/C)C(=O)O[C@H]1c2cc(OC)c(OC)c(OC)c2-c2c(cc3c(c2OC)OCO3)C[C@H](C)[C@]1(C)O` [SCHISANTHERIN B]: in data set [1], the half-maximal cytotoxic concentration (CC50) was greater than 200 µg/mL. Further, the selectivity ratio in data set [2] was greater than 9.05. Further, the EC50 in data set [3] was determined as 22.1 µg/mL (≈ 42.9 µM).

Molecule `COc1c2c(cc3c1-c1c(cc4c(c1OC)OCO4)[C@H](OC(=O)c1ccccc1)[C@@](C)(O)[C@@H](C)C3)OCO2` [SCHISANTHERIN D] registered a CC50 in data set [1] greater than 200 µg/mL. Besides, in data set [2], the selectivity ratio was greater than 9.76. Further, in data set [3], the EC50 is 20.5 µg/mL (≈ 39.4 µM).

In data set [1], `CC1=CC[C@H]([C@](C)(O)[C@H]2CC[C@@]3(C)[C@@H]4C[C@H](O)[C@H]5C(C)(C)OC(=O)C=C[C@@]56C[C@@]46C[C@H](O)[C@]23C)OC1=O` [ANGUSTIFODILACTONE B] showed a CC50 of 182 µg/mL (≈ 354 µM). Moreover, the selectivity ratio in data set [2] was 13.4. Further, in data set [3], the EC50 turned out to be 13.6 µg/mL (≈ 26.4 µM).

On to `COc1cc2c(c(OC)c1OC)-c1c(cc(OC)c(OC)c1OC)C[C@](C)(O)[C@@H](C)C2` [SCHIZANDRIN], for which the CC50 in data set [1] was greater than 200 µg/mL. In data set [2], the selectivity ratio is greater than 12.7. The EC50 in data set [3] came out at 15.8 µg/mL (≈ 36.5 µM).

As to `C=C(C)[C@@H]1C[C@H](O)[C@@H]2[C@]3(CC[C@]4(C)C([C@@](C)(O)CC/C=C(/C)C(=O)O)=C[C@H](O)[C@@]24C)C[C@]13CCC(=O)O` [ANGUSTIFIC ACID B], the CC50 in data set [1] came to 156 µg/mL (≈ 302 µM). Also, the selectivity ratio in data set [2] was 13.9. In addition, the EC50 in data set [3] turned out to be 11.2 µg/mL (≈ 21.7 µM).

The molecule `CC1(C)OC(=O)C=C[C@]23C[C@]24C[C@H](O)[C@]2(C)[C@@H]([C@@](C)(O)[C@H]5CC=C(CO)C(=O)O5)CC[C@@]2(C)[C@@H]4C[C@H](O)[C@@H]13` [ANGUSTIFODILACTONE A] showed a CC50 in data set [1] of 178 µg/mL (≈ 336 µM). In data set [2], the selectivity ratio turned out to be 13.4. For the same molecule, the EC50 in data set [3] was found to be 13.3 µg/mL (≈ 25.1 µM).

For the molecule `C=C(C)[C@@H]1CC[C@@H]2[C@]3(CC[C@]4(C)[C@@H]([C@H](C)CC/C=C(/C)C(=O)O)CC[C@@]24C)C[C@]13CCC(=O)O` [NIGRANOIC ACID], it took 89 µg/mL (≈ 189 µM) to reach half-maximal cytotoxicity in data set [1] (CC50). In data set [2], the selectivity ratio worked out at 8.48. Further, the EC50 in data set [3] worked out at 10.5 µg/mL (≈ 22.3 µM).

In turn, `Cc1cn([C@H]2C[C@H](N=[N+]=[N-])[C@@H](CO)O2)c(=O)[nH]c1=O` [ZIDOVUDINE] came in with a CC50 in data set [1] greater than 200 µg/mL. For the same molecule, the selectivity ratio in data set [2] is greater than 60600. Further, the EC50 in data set [3] was found to be 0.0033 µg/mL (≈ 0.0123 µM).

As to `C=C(CC/C=C(/C)C(=O)O)C1=CC[C@@]2(C)[C@@H]3[C@H]4C[C@H](C(=C)C)[C@@]5(CCC(=O)O4)C[C@@]35CC[C@]12C` [ANGUSTIFIC ACID A], the CC50 in data set [1] was greater than 200 µg/mL. In data set [2], the selectivity ratio is greater than 32.8. The EC50 in data set [3] worked out at 6.11 µg/mL (≈ 13.1 µM).

Consider `C=C(C)[C@@H]1CC[C@@H]2[C@]3(CC[C@]4(C)C(=O)CC[C@@]24C)C[C@]13CCC(=O)O` [MICRANOIC ACID B], for which the CC50 in data set [1] came out at 176 µg/mL (≈ 511 µM). In data set [2], the selectivity ratio turned out to be 11.2. Besides, the EC50 in data set [3] was 15.7 µg/mL (≈ 45.6 µM).
